The nature of the series: in vitro. The note with it: human, hela cells, % viability.

In general, viability refers to a read-out of living cells in per cent, often relative to untreated cells. For `Cc1ccc(-n2ncc3c(=O)n(CC(=O)Nc4ccccc4)cnc32)cc1C` [CBK287539], the viability at 28.5 h, 10 µM is 87.3%.
In the case of `Cc1cc(-c2nnc(NCc3ccnn3C)o2)c(C)o1` [CBK306446], the viability at 28.5 h, 10 µM came out at 84.6%.
For the compound `Cc1nc(=O)c(-c2ccccc2)c(C)n1CCc1c[nH]cn1` [CBK287900], the viability at 28.5 h, 10 µM is 89.3%.
With `CC(=O)c1cc2c(cc1NC(=O)CSc1nc3ccccc3[nH]1)OCO2` [CBK266110], the viability at 28.5 h, 10 µM is 69.8%.
The figure for `O=[N+]([O-])c1ccc(-c2ccc(/C=C/c3cc(O)c4ccccc4n3)o2)cc1` [CBK267792] is 92.1%.
The value for `CN(C)c1cccc(-c2nc(-c3ccco3)cnc2N)c1` [CBK063970] was 89.2%; that for `COc1ccc(C(=O)N[C@@H]2CC[C@@]3(c4ccc(OC)c(OC)c4)CCN(C)[C@H]3C2)c(OC)c1` [CBK074247T] was 91.7%.
`Cc1ccc(C(=O)C2=C(O)C(=O)N(CCCN3CCOCC3)C2c2ccccn2)o1` (stereo not shown) [CBK269187]: the viability at 28.5 h, 10 µM was determined as 89.7%.
As for `O=C(NC1CC2(CCCCC2)Oc2ccccc21)C1CCOC1` (stereo not shown) [CBK283760], the viability at 28.5 h, 10 µM was 105%.
For the compound `Cn1nc(C2CCN(Cc3ccccc3)CC2)c2cccnc21` [CBK285095], the viability at 28.5 h, 10 µM came out at 94.9%.
The figure for `CC(C)(C)c1ccc(OCCCC(=O)Nc2ccc(N3CCOCC3)cc2)cc1` [CBK264783] is 88.8%.
For the compound `Cc1noc(NS(=O)(=O)c2ccc(NC(=O)/C=C/c3ccc(C(C)C)cc3)cc2)c1C` [CBK265430], the viability at 28.5 h, 10 µM was 89.2%.
For `CC(CNS(=O)(=O)c1ccc(N2CCCC2=O)cc1)Cn1cccn1` (stereo not shown) [CBK304656], the viability at 28.5 h, 10 µM stood at 87.7%.
In the case of `N#CC1=C(N)Oc2[nH]nc(-c3cccs3)c2C1c1ccco1` (stereo not shown) [CBK266088], the viability at 28.5 h, 10 µM came out at 99%.
For the compound `Cc1nn(-c2ccc(F)cc2)c(C)c1CNC(=O)CCC1CCCO1` (stereo not shown) [CBK281456], the viability at 28.5 h, 10 µM turned out to be 86.8%.
In the case of `CN(C)CCN(C)C(=O)C1CCN(c2cncc(-c3ccc(O)cc3)n2)CC1` [CBK126928T], the viability at 28.5 h, 10 µM came out at 88%.
Turning to `Cn1c(CN2CCCC2)nc2cc(NC(=O)c3cccc([N+](=O)[O-])c3)ccc21` [CBK268316], the viability at 28.5 h, 10 µM amounted to 98.6%.
Consider `Cc1cc(C)c(NC(=O)C2CCCCN2C23CC4CC(CC(C4)C2)C3)c(C)c1` (stereo not shown) [CBK261559C], for which the viability at 28.5 h, 10 µM is 92.6%.
As to `O=C(O)CCC(=O)Nc1ccc(S(=O)(=O)Nc2ccc(I)cc2)cc1` [CBK264866], the viability at 28.5 h, 10 µM is 99.9%.
`CC(=O)NCCc1nc2cc(NC(=O)Nc3ccccc3)ccc2n1C` [CBK268216]: the viability at 28.5 h, 10 µM amounted to 103%.
As for `CS(=O)(=O)N1CCc2cc(-c3csc(NCC(F)(F)F)n3)ccc21` [CBK305650], the viability at 28.5 h, 10 µM is 95.4%.
As to `COc1cc(CN2CCC(C)CC2)c([N+](=O)[O-])cc1OC` [CBK261911], the viability at 28.5 h, 10 µM was 90%.
`CCN(CC)C(=O)C1CCCN(C(=O)Nc2ccc3c(c2)OCCO3)C1` (stereo not shown) [CBK156135]: the viability at 28.5 h, 10 µM was 92.3%.
The figure for `O=C1NN(c2cccc(Cl)c2)C(=O)/C1=C\c1ccc(-c2ccc3c(c2)C(=O)NC3=O)o1` [CBK262970] is 93.4%; for `O=c1[nH]c(CNc2ccccc2)nc2ccccc12` [CBK288038] it is 103%.
Regarding `COc1ccc(-c2nc(C#N)c(NCCN3CCOCC3)o2)cc1` [CBK265769], the viability at 28.5 h, 10 µM is 108%.
For `CC(C)(c1ccccc1)c1ccc(OCCCCn2cncn2)cc1` [CBK266405], the viability at 28.5 h, 10 µM was determined as 89.5%.
Consider `Cc1nn(CC(=O)OC2CCCCC2)c(=O)c2cc3ccsc3n12` [CBK284058], for which the viability at 28.5 h, 10 µM is 82.5%.
`Oc1ccc(Cl)cc1/C=N/c1ccc(-c2cc(-c3ccc(/N=C/c4cc(Cl)ccc4O)cc3)ncn2)cc1` [CBK261626]: the viability at 28.5 h, 10 µM is 101%.
For `S=c1[nH]nc(Cn2ccc(-c3ccccc3)n2)o1` [CBK022019], the viability at 28.5 h, 10 µM stood at 108%.
In the case of `CC(=O)Nc1cccc(-n2nnnc2SC2CCCCC2=O)c1` (stereo not shown) [CBK304600], the viability at 28.5 h, 10 µM came out at 95.4%.

Values taken from paper PMC12040169 (PLOS Biology, 2025).
